Legend:
human normal fibroblasts [1] = assay: Effect on fibroblast proliferation (MTT); type: cell-based; settings: 10 μM dehydrogenated abietic acid, 24 hours, relative to group not treated with sample
Protocol: The effect of dehydrogenated abietic acid (purchased from Ramidus AB) of Formula 1 on wrinkle reduction was measured. In order to examine the effect of dehydrogenated abietic acid on skin cell proliferation that reduces wrinkles, human normal fibroblasts were seeded into a 96-well microplate at a density of 1×10^4 cells/well, and incubated in DMEM (Dulbecco's Modified Eagle's Medium) medium in a CO2 incubator at 36.5° C. for 24 hours. After incubation, in Example 1, the medium was replaced with a serum-free medium containing 10 μM of dehydrogenated abietic acid, and then the cells were further incubated for 24 hours. In Comparative Example 1, cells not treated with dehydrogenated abietic acid were used. Then, 10 μl of (3-(4,5-dimethyl-thiazol-2-yl)2,5-diphenyl tetrazolium (MTT, 5 mg/ml) was added to each well, which was then allowed to stand for 4 hours, followed by removal of the medium. Then, 100 μl of dimethyl sulfoxide solution was added to each well, and the absorbance at 570 nm was measured with a microplate reader. Based on the absorbance measured as described above, the cell proliferation effect was calculated using the following equation. The results of the calculation are shown in Table 1 below. Cell proliferation effect (%)=(absorbance of group treated with sample/absorbance of group not treated with sample)×100 Equation 1

human normal fibroblasts [2] = assay: Effect on stimulation of collagen biosynthesis (PICP kit); type: cell-based; settings: 10 μM dehydrogenated abietic acid, 48 hours, supernatant, 50 μg/ml ascorbic acid added
Protocol: The effect of dehydrogenated abietic acid (purchased from Ramidus AB) of Formula 1 on the stimulation of collagen biosynthesis was measured. In order to examine the effect of dehydrogenated abietic acid on the stimulation of collagen biosynthesis, human normal fibroblasts were seeded into a 96-well microplate at a density of 1×10^4 cells/well, and incubated in DMEM (Dulbecco's Modified Eagle's Medium) medium in a CO2 incubator at 36.5° C. for 24 hours. After incubation, in Example 2, the medium was replaced with a serum-free medium containing 10 μM of dehydrogenated abietic acid, and then the cells were further incubated for 48 hours. In Comparative Example 2, cells not treated with dehydrogenated abietic acid were used. At 24 hours before completion of the incubation, 50 μg/ml of ascorbic acid was added to each well to stimulate collagen synthesis. After completion, each well was washed, and the medium was replaced with serum-free DMEM medium, after which the cells were further incubated for 24 hours. After incubation, the supernatant of each well was collected, and the amount of procollagen type-I C-peptide (PICP) in the supernatant was measured using a kit (Takara, Kyoto, Japan) to determine the amount of newly synthesized collagen. The amount of PICP that is the amount of collagen synthesized is expressed in units of ng/2×10^4 cells in Table 2 below.

SMILES: CC(C)c1ccc2c(c1)CC[C@H]1[C@](C)(C(=O)O)CCC[C@]21C [Example 1, dehydrogenated abietic acid]
- Cell proliferation effect (%) (human normal fibroblasts [1]): 60.0%
- Amount of collagen synthesized (procollagen type-I C-peptide, PICP) (human normal fibroblasts [2]): 220 ng/2 × 10^4

— patent publication US20150164754A1, “ANTI-AGEING COMPOSITION CONTAINING DEHYDROGENATED ABIETIC ACID AS ACTIVE INGREDIENT” (AMOREPACIFIC CORPORATION, priority 2012, published 2015)
